The target of series [1] is human MDR1 (P-glycoprotein; P-gp) (Homo sapiens (Human), UniProt P08183). Nature of the series: bi-directional MDCK-MDR1 permeability assay. In kind it is in vitro ADME. The note with it: for Papp A→B: dog; for Papp A→B / efflux ratio: MDCK-MDR1; for Papp A→B / MDCK-MDR1 Papp A→B (10^−6 cm/s): apical to basolateral direction; for efflux ratio: human, read-out: MDCK-MDR1 ER; for efflux ratio / MDCK-MDR1 ER: efflux ratio B→A/A→B. The text has this:
The bi-directional assay containing a Mandin Darby canine kidney (MDCK) cell line transfected with human MDR1 gene (P-glycoprotein; P-gp) designed to overexpress the MDR1 efflux transporter, a major efflux transporter at the blood brain barrier (BBB), uses an established method that measures the rate of flux of a compound across polarized cell monolayers. As well appreciated in the art, the data generated from the MDCK-MDR1 permeability assay may be used to predict in vivo absorption of drugs. The bi-directional MDCK-MDR1 permeability assay can identify and quantify levels of active efflux. Screening compounds in both the apical to basolateral direction (A→B) and basolateral to apical direction (B→A) across the cell monolayer provides a ratio of B→A/A→B (efflux ratio; “ER”). Unlike the Caco-2 assay, the MDCK-MDR1 assay is not subject to potential efflux interference by breast cancer resistance protein (BCRP). […] The data may further be used to predict blood brain barrier (BBB) permeability via calculation from the data of log(permeability-surface area product) (“log PS”), well-understood to be predictive of the in vivo log([brain concentration]/[plasma concentration]).

The target of another series is PARP1 enzyme (Homo sapiens (Human), UniProt P09874). Nature of the series: PARP Mass Spectroscopy Assay (PARP1 enzymatic assay, nicotinamide detection). The note with it: 5 nM PARP1, 5 uM β-NAD, 60 min at RT, NAM by mass spectrometry. In kind it is biochemical. The text has this: Materials and Reagents: The PARP1 enzyme was purchased from BPS Bioscience (cat #80501). Tris-HCl, pH 8.0 was purchased from Corning (cat #46-031-CM). Magnesium chloride was purchased from Thermo Fisher Scientific (previously Honeywell Fluka, cat #63020-1L). All other assay components, activated DNA (cat #D4522), core histones (cat #SRP6590), β-Nicotinamide adenine dinucleotide (β-NAD—cat #N8285), 3ABA PARP1 small molecule inhibitor (from the PARP1 Enzyme Activity Assay kit, cat #17-10149), Sodium Chloride (NaCl, cat #56546-1L), Triton X-100 (cat #93443), Dithiothreitol (DTT, cat #43816-250 ML) were all purchased from Millipore Sigma.
Assay Buffer: The assay buffer includes the following reagents: 50 mM Tris-HCl pH 8.0, 50 mM NaCl, 10 mM, MgCl2, 0.01% Triton X-100, and 1 mM DTT.
PARP1 enzymatic assays were performed in 384-well plates in a total volume of 20 μL in the assay buffer. For concentration response curves, compounds were serially diluted 3-fold from 2 mM highest concentration […] to generate a 10-point curve, and 125 nL was transferred to the assay plate using the Echo acoustic dispenser for a final concentration range of 26.6 μM to […] in 10 μL reaction. Five microliters of 10 nM PARP1 enzyme and 100 nM core histones (2×) mix were added to the assay plates and pre-incubated for 30 mins at room temperature (RT). The reaction was initiated by the addition of a 5 μL of 10 uM β-NAD plus 0.02 mg/mL activated DNA (2×) mix. The reaction is incubated for 60 min at RT. The final concentration of the PARP1 enzyme and substrate concentrations were 5 nM and 5 uM, respectively. The positive control (high signal) and negative control (low signal) wells had 125 nL of DMSO in place of compounds. After the incubation is complete, the reaction is stopped by the addition of 10 μL of 10 uM of the 3ABA PARP1 inhibitor, incubated for 5 min at RT, and placed in the −80 C freezer for shipment to the Valo Health site in Branford Connecticut where mass spectrometry will be used to directly detect quantities of nicotinamide (NAM).
The percent inhibition of enzyme activity was calculated according to the following equation: […]
The values of Ssample, Shigh, and Slow in the equation refer to the NAM concentration detected in the assay wells, high control wells, and low control wells, respectively. To determine inhibitor IC50 values, % inhibition of the CRCs (concentration response curves) was fitted to the standard single-site four-parameter logistic equation.

Each structure is given as a SMILES string.

Chain of human MDR1 (P-glycoprotein; P-gp) (P08183 whole entry): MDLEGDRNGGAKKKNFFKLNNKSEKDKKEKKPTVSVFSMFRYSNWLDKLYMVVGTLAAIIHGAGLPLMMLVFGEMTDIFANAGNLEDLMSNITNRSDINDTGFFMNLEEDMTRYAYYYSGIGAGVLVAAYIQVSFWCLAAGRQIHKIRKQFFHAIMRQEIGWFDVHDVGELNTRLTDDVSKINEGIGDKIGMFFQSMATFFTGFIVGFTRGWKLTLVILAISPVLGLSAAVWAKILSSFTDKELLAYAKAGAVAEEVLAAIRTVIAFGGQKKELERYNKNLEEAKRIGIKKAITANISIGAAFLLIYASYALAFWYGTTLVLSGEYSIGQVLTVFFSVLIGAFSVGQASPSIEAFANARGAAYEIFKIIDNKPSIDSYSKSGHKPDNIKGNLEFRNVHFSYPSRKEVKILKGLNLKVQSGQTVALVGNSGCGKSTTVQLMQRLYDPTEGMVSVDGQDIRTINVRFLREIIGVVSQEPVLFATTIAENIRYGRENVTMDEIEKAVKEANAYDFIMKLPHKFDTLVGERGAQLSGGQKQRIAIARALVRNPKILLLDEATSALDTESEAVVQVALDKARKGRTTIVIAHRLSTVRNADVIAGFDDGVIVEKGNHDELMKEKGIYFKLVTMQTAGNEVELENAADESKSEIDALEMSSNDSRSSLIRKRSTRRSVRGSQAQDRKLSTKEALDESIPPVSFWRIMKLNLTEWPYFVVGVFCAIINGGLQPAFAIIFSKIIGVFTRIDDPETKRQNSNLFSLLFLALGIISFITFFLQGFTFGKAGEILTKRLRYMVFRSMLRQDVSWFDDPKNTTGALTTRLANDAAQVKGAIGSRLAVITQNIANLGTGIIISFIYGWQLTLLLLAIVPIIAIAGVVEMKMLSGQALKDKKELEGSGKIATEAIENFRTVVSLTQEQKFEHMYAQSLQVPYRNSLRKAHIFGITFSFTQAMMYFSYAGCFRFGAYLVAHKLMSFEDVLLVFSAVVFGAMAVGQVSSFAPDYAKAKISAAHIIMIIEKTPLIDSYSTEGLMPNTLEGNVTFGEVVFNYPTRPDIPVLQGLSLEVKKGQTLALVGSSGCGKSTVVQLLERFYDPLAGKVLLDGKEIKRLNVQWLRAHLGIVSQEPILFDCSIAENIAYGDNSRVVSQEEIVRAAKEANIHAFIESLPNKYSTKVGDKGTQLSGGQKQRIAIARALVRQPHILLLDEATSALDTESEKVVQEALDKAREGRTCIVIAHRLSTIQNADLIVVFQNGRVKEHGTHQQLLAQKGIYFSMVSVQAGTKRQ
Chain of PARP1 enzyme (P09874 whole entry): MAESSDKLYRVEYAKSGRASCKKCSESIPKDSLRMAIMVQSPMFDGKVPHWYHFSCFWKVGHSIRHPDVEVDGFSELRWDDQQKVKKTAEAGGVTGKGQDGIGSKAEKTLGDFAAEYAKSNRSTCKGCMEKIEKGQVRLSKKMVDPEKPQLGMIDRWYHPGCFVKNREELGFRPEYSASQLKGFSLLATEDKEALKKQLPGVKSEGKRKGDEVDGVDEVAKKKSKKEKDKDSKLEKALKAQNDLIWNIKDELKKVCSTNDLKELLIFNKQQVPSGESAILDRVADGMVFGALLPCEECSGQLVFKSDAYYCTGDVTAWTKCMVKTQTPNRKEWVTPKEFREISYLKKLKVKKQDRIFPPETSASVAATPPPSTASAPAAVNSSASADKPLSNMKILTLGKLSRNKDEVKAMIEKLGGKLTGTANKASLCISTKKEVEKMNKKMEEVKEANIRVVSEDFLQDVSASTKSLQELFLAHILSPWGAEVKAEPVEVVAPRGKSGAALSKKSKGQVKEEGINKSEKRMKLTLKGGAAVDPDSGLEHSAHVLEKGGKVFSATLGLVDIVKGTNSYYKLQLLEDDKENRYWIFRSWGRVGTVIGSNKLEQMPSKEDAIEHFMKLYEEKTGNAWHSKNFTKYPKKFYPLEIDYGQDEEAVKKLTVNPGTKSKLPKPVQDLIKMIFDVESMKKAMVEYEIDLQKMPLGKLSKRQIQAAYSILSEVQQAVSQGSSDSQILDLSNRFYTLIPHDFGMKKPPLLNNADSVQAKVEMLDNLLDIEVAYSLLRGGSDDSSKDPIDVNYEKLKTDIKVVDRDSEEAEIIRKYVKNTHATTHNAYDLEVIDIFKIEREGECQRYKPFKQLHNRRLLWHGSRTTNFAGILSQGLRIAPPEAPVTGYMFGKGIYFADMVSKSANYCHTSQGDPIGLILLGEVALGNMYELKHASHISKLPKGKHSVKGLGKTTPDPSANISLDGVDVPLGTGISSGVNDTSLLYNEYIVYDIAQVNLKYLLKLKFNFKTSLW

On to `C[C@H]1Nc2cc(F)cc3c(=O)[nH]nc(c23)[C@@H]1c1ccc(Cl)c(F)c1` [Compound 0195A, (8R,9R)-9-(4-chloro-3-fluorophenyl)-5-fluoro-8-methyl-2,7,8,9-tetrahydro-3H-pyrido[4,3,2-de]phthalazin-3-one], for which, in series [1], the Papp A→B was 13.9 ×10⁻⁶ cm/s and the efflux ratio amounted to 0.699. This compound yielded an IC50 against PARP1 enzyme of 21 nM.

For the compound `O=c1[nH]nc2c3c(cc(F)cc13)N[C@H]([C@H]1CCOC1)[C@H]2c1ccc(F)cc1F` [Compound 0115A], in series [1], the “MDCK-MDR1 Papp A→B (10^−6 cm/s)” value is reported as 8.3 10^−6 cm/s and the “MDCK-MDR1 ER” value came out at 1.73. On PARP1 enzyme, this compound registered an IC50 of 10 nM.

As to `C[C@@H]1Nc2cc(F)cc3c(=O)[nH]nc(c23)[C@H]1c1ccc(Cl)c(F)c1` [Compound 0195B, (8S,9S)-9-(4-chloro-3-fluorophenyl)-5-fluoro-8-methyl-2,7,8,9-tetrahydro-3H-pyrido[4,3,2-de]phthalazin-3-one], in series [1], the Papp A→B was 16.4 ×10⁻⁶ cm/s and the efflux ratio amounted to 0.691. The IC50 at PARP1 enzyme was 26 nM.

As to `C[C@H]1Nc2cc(F)cc3c(=O)[nH]nc(c23)[C@@H]1c1ccccc1Cl` [Compound 0172A, (8R,9R)-9-(2-chlorophenyl)-5-fluoro-8-methyl-2,7,8,9-tetrahydro-3H-pyrido[4,3,2-de]phthalazin-3-one], in series [1], the Papp A→B was found to be 11 ×10⁻⁶ cm/s and the efflux ratio was 0.658. Also, the midpoint of inhibition at PARP1 enzyme, the IC50, lay at 10 nM.

Take `O=c1[nH]nc2c3c(cc(F)cc13)N[C@@H]([C@@H]1CCOC1)[C@@H]2c1ccccc1Cl` [Compound 0121D]: in series [1], the “MDCK-MDR1 Papp A→B (10^−6 cm/s)” value is listed as 3.66 10^−6 cm/s and the “MDCK-MDR1 ER” value came out at 5.77. Also, the IC50 against PARP1 enzyme was found to be 43 nM.

For `C[C@H]1Nc2cc(F)cc3c(=O)[nH]nc(c23)[C@@H]1c1ccc(C#N)c(F)c1` [Compound 0193A], in series [1], the “MDCK-MDR1 Papp A→B (10^−6 cm/s)” value is recorded as 5.83 10^−6 cm/s and the “MDCK-MDR1 ER” value is recorded as 2.63. Besides, the IC50 against PARP1 enzyme turned out to be 24 nM.

Take `CN1CCC([C@@H]2Nc3cc(F)cc4c(=O)[nH]nc(c34)[C@H]2c2ccccc2Cl)CC1` [Compound 0116B, (8S,9S)-9-(2-chlorophenyl)-5-fluoro-8-(1-methylpiperidin-4-yl)-2,7,8,9-tetrahydro-3H-pyrido[4,3,2-de]phthalazin-3-one]: in series [1], the Papp A→B worked out at 0.471 ×10⁻⁶ cm/s and the efflux ratio was determined as 30.8. This compound also registered an IC50 against PARP1 enzyme of 123 nM.

Consider `O=c1[nH]nc2c3c(cc(F)cc13)NC[C@H]2c1ccccn1` [Compound 0211A], for which, in series [1], the “MDCK-MDR1 Papp A→B (10^−6 cm/s)” value is 9.25 10^−6 cm/s and the “MDCK-MDR1 ER” value is 2.67. Moreover, half-maximal inhibition against PARP1 enzyme (IC50) was put at 27 nM.

For `O=c1[nH]nc2c3c(cc(F)cc13)N[C@H]([C@@H]1CCOC1)[C@H]2c1ccc(F)cc1F` [Compound 0115B], in series [1], the “MDCK-MDR1 Papp A→B (10^−6 cm/s)” value is listed as 9.05 10^−6 cm/s and the “MDCK-MDR1 ER” value is recorded as 2.04. This compound had an IC50 at PARP1 enzyme of 190 nM.

Turning to `O=c1[nH]nc2c3c(cc(F)cc13)NCC2c1ccc(F)cc1F` (stereo not drawn) [Compound 0114-5, 9-(2,4-difluorophenyl)-5-fluoro-2,7,8,9-tetrahydro-3H-pyrido[4,3,2-de]phthalazin-3-one], in series [1], the Papp A→B is 16.1 ×10⁻⁶ cm/s and the efflux ratio was determined as 0.995. On PARP1 enzyme, this compound showed an IC50 of 32 nM.

As for `O=c1[nH]nc2c3c(cc(F)cc13)NC[C@H]2c1ccccc1Cl` [Compound 0120A, (R)-9-(2-chlorophenyl)-5-fluoro-2,7,8,9-tetrahydro-3H-pyrido[4,3,2-de]phthalazin-3-one], in series [1], the Papp A→B worked out at 12.9 ×10⁻⁶ cm/s and the efflux ratio came out at 0.655. Moreover, the IC50 on PARP1 enzyme was found to be 87 nM.

In the case of `CC(C)[C@H]1Nc2cc(F)cc3c(=O)[nH]nc(c23)[C@H]1c1ccccc1Cl` [Compound 0222B], in series [1], the “MDCK-MDR1 Papp A→B (10^−6 cm/s)” value was 9.59 10^−6 cm/s and the “MDCK-MDR1 ER” value is 0.92. Further, at PARP1 enzyme, the IC50 worked out at 18 nM.

In the case of `CC(C)[C@@H]1Nc2cc(F)cc3c(=O)[nH]nc(c23)[C@H]1c1c(F)cc(F)cc1F` [Compound 0221B], in series [1], the “MDCK-MDR1 Papp A→B (10^−6 cm/s)” value is 8.48 10^−6 cm/s and the “MDCK-MDR1 ER” value is listed as 1.15. The compound further came in with an IC50 against PARP1 enzyme of 19 nM.

Take `CC(=O)N1CCC([C@@H]2Nc3cc(F)cc4c(=O)[nH]nc(c34)[C@H]2c2ccccc2Cl)CC1` [Compound 0223B]: in series [1], the “MDCK-MDR1 Papp A→B (10^−6 cm/s)” value was 0.685 10^−6 cm/s and the “MDCK-MDR1 ER” value stood at 37. This compound also yielded an IC50 on PARP1 enzyme of 9 nM.

With `C[C@H]1Nc2cc(F)cc3c(=O)[nH]nc(c23)[C@@H]1c1ccc(Cl)cc1F` [Compound 0196A], in series [1], the “MDCK-MDR1 Papp A→B (10^−6 cm/s)” value is reported as 13 10^−6 cm/s and the “MDCK-MDR1 ER” value amounted to 0.537. For the same compound, on PARP1 enzyme, 9 nM corresponded to half-maximal inhibition (IC50).

For `O=c1[nH]nc2c3c(cc(F)cc13)N[C@@H](C1CCOCC1)[C@@H]2c1ccccc1Cl` [Compound 0210A, (11S,12S)-12-(2-chlorophenyl)-7-fluoro-11-(oxan-4-yl)-2,3,10-triazatricyclo[7.3.1.0^{5,13}]trideca-1,5(13),6,8-tetraen-4-one], in series [1], the “MDCK-MDR1 Papp A→B (10^−6 cm/s)” value is recorded as 2.91 10^−6 cm/s and the “MDCK-MDR1 ER” value is on record as 6.97. The IC50 against PARP1 enzyme worked out at 106 nM.

With `C[C@@H]1Nc2cc(F)cc3c(=O)[nH]nc(c23)[C@@H]1[C@H]1CCCCN1C` [Compound 0199C], in series [1], the “MDCK-MDR1 Papp A→B (10^−6 cm/s)” value is recorded as 0.506 10^−6 cm/s and the “MDCK-MDR1 ER” value was found to be 17.9. Half-maximal inhibition at PARP1 enzyme (IC50) required 38 nM.

Regarding `O=c1[nH]nc2c3c(cc(F)cc13)NC[C@H]2c1ccc(Cl)c(F)c1` [Compound 0188A, (R)-9-(4-chloro-3-fluorophenyl)-5-fluoro-2,7,8,9-tetrahydro-3H-pyrido[4,3,2-de]phthalazin-3-one], in series [1], the Papp A→B came out at 11.7 ×10⁻⁶ cm/s and the efflux ratio was found to be 0.541. The IC50 against PARP1 enzyme was 28 nM.

Turning to `O=c1[nH]nc2c3c(cc(F)cc13)N[C@@H]([C@H]1CCOC1)[C@@H]2c1ccc(F)cc1F` [Compound 0115C], in series [1], the “MDCK-MDR1 Papp A→B (10^−6 cm/s)” value is 4.82 10^−6 cm/s and the “MDCK-MDR1 ER” value worked out at 4.67. On PARP1 enzyme, 252 nM corresponded to half-maximal inhibition (IC50).

On to `O=c1[nH]nc2c3c(cc(F)cc13)NCC2c1ccc(Cl)cc1F` (stereo not drawn) [Compound 0189-6], for which, in series [1], the “MDCK-MDR1 Papp A→B (10^−6 cm/s)” value is given as 10.6 10^−6 cm/s and the “MDCK-MDR1 ER” value amounted to 0.59. Further, the IC50 at PARP1 enzyme came to 41 nM.

Consider `O=c1[nH]nc2c3c(cc(F)cc13)N[C@@H](C1CCC(F)(F)CC1)[C@@H]2c1ccccc1Cl` [Compound 0213B], for which, in series [1], the “MDCK-MDR1 Papp A→B (10^−6 cm/s)” value is reported as 4.93 10^−6 cm/s and the “MDCK-MDR1 ER” value is recorded as 3.33. Also, it took 130 nM to reach half-maximal inhibition against PARP1 enzyme (IC50).

As for `CN1CCC([C@H]2Nc3cc(F)cc4c(=O)[nH]nc(c34)[C@H]2c2ccc(F)cc2F)CC1` [Compound 0110B, (8R,9S)-9-(2,4-difluorophenyl)-5-fluoro-8-(1-methylpiperidin-4-yl)-2,7,8,9-tetrahydro-3H-pyrido[4,3,2-de]phthalazin-3-one], in series [1], the Papp A→B turned out to be 0.498 ×10⁻⁶ cm/s and the efflux ratio is 30.4. The same compound gave an IC50 against PARP1 enzyme of 45 nM.

For `O=c1[nH]nc2c3c(cc(F)cc13)NCC2c1ccc(Cl)c(F)c1` (stereo not drawn) [Compound 0188-5, 9-(4-chloro-3-fluorophenyl)-5-fluoro-2,7,8,9-tetrahydro-3H-pyrido[4,3,2-de]phthalazin-3-one], in series [1], the Papp A→B was 11.7 ×10⁻⁶ cm/s and the efflux ratio turned out to be 0.522. Also, on PARP1 enzyme, 42 nM corresponded to half-maximal inhibition (IC50).

What is called Papp A→B is the apparent permeability from the apical to the basolateral side of a cell layer. High values mean fast passage, low ones slow passage. In general, IC50 refers to the concentration needed to halve the response being measured.

(Values after patent US20250346599A1, “TRICYCLIC PHTHALAZINONE PARP INHIBITORS AND METHODS OF USE” (Valo Health, Inc., priority 2022, published 2025).)
